Experimental data taken from publication PMC6921407, “Novel coumarins active against Trypanosoma cruzi and toxicity assessment using the animal model Caenorhabditis elegans” (BMC Pharmacology & Toxicology, 2019).
Several values for one entry are separate records, joined by “and”; a condition that tells them apart may be missing. Equal values may be shown once.

Tested on: Trypanosoma cruzi epimastigotes (Tulahuen 2 strain)
Assay: Anti-Trypanosoma cruzi activity: growth inhibition of epimastigotes (absorbance at 600 nm, day 5)
Type: cell-based
Details: T. cruzi epimastigotes
Experimental: Trypanosoma cruzi epimastigotes (Tulahuen 2 strain) were grown at 28 °C in an axenic milieu (BHI-Tryptose) supplemented with 5% fetal bovine serum (FBS), as previously described. Cells from a 10-day-old culture (stationary phase) were inoculated into 50 mL of fresh culture milieu to give an initial concentration of 1 × 10^6 cells per mL. Cell growth was followed by measuring the absorbance of the culture at 600 nm every day. Before inoculation, the milieu was supplemented with a given amount of the coumarin from a freshly prepared stock solution in DMSO (25 mM). The final concentration of DMSO in the culture medium never exceeded 0.4%, and the control was run in the presence of 0.4% DMSO and in the absence of drugs. […] Nifurtimox (Nfx) was used as the reference trypanocidal drug. The percentage of growth inhibition (PGI) was calculated as follows: PGI (%) = {1 - [(Ap - A0p) / (Ac - A0c)]} × 100, where Ap = […] of the culture containing the studied compound at day 5; […] = […] of the culture containing the studied compound just after addition of the inocula (day 0); Ac = […] of the culture in the absence of the studied compound (control) at day 5; […] = […] in the absence of the studied compound at day 0. […] At day 5, the absorbance of the culture was measured and related to the control.

Compound	IC50
CCc1ccc2oc(=O)cc(CN3CCNCC3)c2c1 [11j]	Inactive
Cc1ccc2oc(=O)cc(CN3CCS(=O)(=O)CC3)c2c1 [10m]	Inactive
Cc1ccc2oc(=O)cc(CN3CCNCC3)c2c1 [10j]	Inactive
Cc1ccc2oc(=O)cc(CN3CCSCC3)c2c1 [10l]	Inactive
Cc1ccc2oc(=O)cc(CN3CCOCC3)c2c1 [10k]	Inactive

Same assay, conditions: T. cruzi epimastigotes, read-out: IC50

Compound	IC50 [µM]
O=c1cc(CNc2ccccc2)c2cc(Cl)ccc2o1 [9a]	< 10
CCc1ccc2oc(=O)cc(CN(C)c3ccccc3)c2c1 [11g]	< 10
Cc1ccc2oc(=O)cc(CN(C)c3ccccc3)c2c1 [10g]	8.9
CCc1ccc2oc(=O)cc(CN(C)c3ccc(Cl)cc3)c2c1 [11h]	< 10

Same assay, conditions: T. cruzi epimastigotes, test concentration not given

Compound	GI (%) / percentage of growth inhibition (PGI)
O=c1cc(CN2CCCCC2)c2cc(Cl)ccc2o1 [9i]	15.9 ± 0.9%
Cc1ccc2oc(=O)cc(CN3CCCCC3)c2c1 [10i]	< 15.9%
Cc1ccc(NCc2cc(=O)oc3ccc(C)cc23)cc1 [10b]	29.9 ± 0.9%
Cc1ccc2oc(=O)cc(CNc3ccc(Br)cc3)c2c1 [10d]	< 33.1%
CCc1ccc2oc(=O)cc(CN3CCNCC3)c2c1 [11j]	Inactive
CCc1ccc2oc(=O)cc(CNc3ccc(Br)cc3)c2c1 [11d]	< 21.9%
Cc1ccc2oc(=O)cc(CN3CCS(=O)(=O)CC3)c2c1 [10m]	Inactive
COc1ccc(NCc2cc(=O)oc3ccc(Cl)cc23)cc1 [9e]	< 29.3%
CCc1ccc2oc(=O)cc(CN(C)c3ccccc3)c2c1 [11g]	< 78.6%
Cc1ccc2oc(=O)cc(CNc3ccccc3)c2c1 [10a]	38.5 ± 2.6%
CCc1ccc2oc(=O)cc(CN3CCCCC3)c2c1 [11i]	< 71.4%
O=c1cc(CN2CCOCC2)c2cc(Cl)ccc2o1 [9k]	< 9.6%
Cc1ccc2oc(=O)cc(CN3CCNCC3)c2c1 [10j]	Inactive
CN(Cc1cc(=O)oc2ccc(Cl)cc12)c1ccc(Cl)cc1 [9h]	< 48.4%
CCc1ccc2oc(=O)cc(CN3CCSCC3)c2c1 [11l]	72.9 ± 0.4%
CCc1ccc2oc(=O)cc(CN3CCS(=O)(=O)CC3)c2c1 [11m]	< 10.2%
Cc1ccc2oc(=O)cc(CN3CCSCC3)c2c1 [10l]	Inactive
Cc1ccc2oc(=O)cc(CN3CCOCC3)c2c1 [10k]	Inactive

Same assay, conditions: Trypanosoma cruzi, TULAHUEN, 120 h, T. cruzi epimastigotes, read-out: IC50

Compound	IC50 [µM]
O=c1cc(CNc2ccccc2)c2cc(Cl)ccc2o1 [9a]	9.1 ± 1.6
O=c1cc(CN2CCCCC2)c2cc(Cl)ccc2o1 [9i]	> 100
Cc1ccc2oc(=O)cc(CN3CCCCC3)c2c1 [10i]	> 100
Cc1ccc(NCc2cc(=O)oc3ccc(C)cc23)cc1 [10b]	> 100
Cc1ccc2oc(=O)cc(CNc3ccc(Br)cc3)c2c1 [10d]	> 100
CCc1ccc2oc(=O)cc(CNc3ccc(Br)cc3)c2c1 [11d]	35.4 ± 2.1
COc1ccc(NCc2cc(=O)oc3ccc(Cl)cc23)cc1 [9e]	> 100
CCc1ccc2oc(=O)cc(CN(C)c3ccccc3)c2c1 [11g]	8.2 ± 2.3
Cc1ccc2oc(=O)cc(CNc3ccccc3)c2c1 [10a]	> 100
CCc1ccc2oc(=O)cc(CN3CCCCC3)c2c1 [11i]	13.9 ± 2.8
O=c1cc(CN2CCOCC2)c2cc(Cl)ccc2o1 [9k]	> 100
CN(Cc1cc(=O)oc2ccc(Cl)cc12)c1ccc(Cl)cc1 [9h]	> 25
Cc1ccc2oc(=O)cc(CN(C)c3ccccc3)c2c1 [10g]	< 10
CCc1ccc2oc(=O)cc(CN3CCSCC3)c2c1 [11l]	> 10
CCc1ccc2oc(=O)cc(CN3CCS(=O)(=O)CC3)c2c1 [11m]	> 100
CCc1ccc2oc(=O)cc(CN(C)c3ccc(Cl)cc3)c2c1 [11h]	6.4 ± 1

Tested on: not given
Assay: not given
Details: not given

Compound	melting point [°C]
O=c1cc(CNc2ccccc2)c2cc(Cl)ccc2o1 [9a]	187 to 188
O=c1cc(CN2CCCCC2)c2cc(Cl)ccc2o1 [9i]	181 to 182
Cc1ccc(NCc2cc(=O)oc3ccc(C)cc23)cc1 [10b]	188 to 189
Cc1ccc2oc(=O)cc(CNc3ccc(Br)cc3)c2c1 [10d]	178 to 179
CCc1ccc2oc(=O)cc(CN3CCNCC3)c2c1 [11j]	> 300
CCc1ccc2oc(=O)cc(CNc3ccc(Br)cc3)c2c1 [11d]	184 to 186
Cc1ccc2oc(=O)cc(CN3CCS(=O)(=O)CC3)c2c1 [10m]	170 to 172
COc1ccc(NCc2cc(=O)oc3ccc(Cl)cc23)cc1 [9e]	192 to 194
Cc1ccc2oc(=O)cc(CNc3ccccc3)c2c1 [10a]	164 to 165
CCc1ccc2oc(=O)cc(CN3CCCCC3)c2c1 [11i]	96 to 98
O=c1cc(CN2CCOCC2)c2cc(Cl)ccc2o1 [9k]	177 to 178
Cc1ccc2oc(=O)cc(CN3CCNCC3)c2c1 [10j]	> 300
CN(Cc1cc(=O)oc2ccc(Cl)cc12)c1ccc(Cl)cc1 [9h]	185 to 186
CCc1ccc2oc(=O)cc(CN3CCSCC3)c2c1 [11l]	134 to 135
CCc1ccc2oc(=O)cc(CN3CCS(=O)(=O)CC3)c2c1 [11m]	175 to 177
Cc1ccc2oc(=O)cc(CN3CCSCC3)c2c1 [10l]	121 to 122
Cc1ccc2oc(=O)cc(CN3CCOCC3)c2c1 [10k]	99 to 100

Tested on: Caenorhabditis elegans N2 (wild type)
Assay: Body area (worm development) of C. elegans after acute exposure
Type: in vivo
Details: 30 min exposure, measured 48 hours after exposure; tested 25 to 100 mM; ANOVA/Bonferroni
Experimental: For the evaluation of body area, 48 hours after exposure the adult worms (20 nematodes per treatment) were photographed and their body contour was measured. For this, the NGM plates were washed with distilled water and the resulting solution was transferred to a centrifuge tube, where the worm was allowed to settle, separating it from the bacteria in suspension. The process was repeated until the solution became clear. […] The pictures were acquired from 20 worms per treatment, which were manually contoured and measured with AxioVision software LE version 4.8.2.0 for Windows.

Compound	concentrations with significant reduction of body area compared with the control [µM]
CCc1ccc2oc(=O)cc(CN(C)c3ccc(Cl)cc3)c2c1 [11h]	50000

Tested on: Caenorhabditis elegans N2 (wild type)
Assay: not given
Details: L1 worms exposed 30 min, survival counted 24 hours after exposure
Experimental: The nematode strain used was N2 (wild type), originally obtained from the Caenorhabditis Genetics Center (University of Minnesota, Twin Cities, MN, USA), which was maintained on nematode growth medium (NGM) plates seeded with Escherichia coli OP50 at 20°C. Synchronization of C. elegans cultures at the first larval stage (L1) was achieved by washing off the gravid nematodes from the plates into the centrifuge tubes, which were lysed with a bleaching mixture (1% NaOCl; 0.25 M NaOH), followed by flotation on a sucrose solution 30% (m/v) to separate the eggs from the dissolved worms and bacterial debris. The eggs were washed with M9 buffer (0.02 M KH2PO4, 0.04 M Na2HPO4, 0.08 M NaCl, and 0.001 M MgSO4) and allowed to hatch overnight (16 hours) in NGM agar plates without bacteria. After 16 hours it was obtained worms at L1 stage. Then, 1.500 L1 worms were exposed for 30 minutes at 20°C, by constant agitation in a rotator, at crescent doses ranging from 25 to 100 mM of coumarins in a 0.5% NaCl liquid media. Stock solutions of coumarins were made in DMSO, therefore worms treated with 0.5% NaCl and 0.5% DMSO were used as controls. After exposure, worms were washed 3 times with 0.5% NaCl to remove the treatments. Finally, worms were transferred to NGM recovery plates inoculated with Escherichia coli (OP50) for posterior assays.
The LD50 of coumarins was determined in C. elegans after exposure. The worms were washed three times with NaCl buffer and placed on OP50-seeded NGM plates. The number of surviving worms on each plate was verified 24 hours after exposure. The lethality data was normalized with the controls and presented as a percentage. All the coumarins were tested in three independent experiments with each concentration tested in two replicates within each experiment.

Compound	LD50 (DL50)
CCc1ccc2oc(=O)cc(CN(C)c3ccccc3)c2c1 [11g]	61.7 mM and 61.50 mM
Cc1ccc2oc(=O)cc(CN(C)c3ccccc3)c2c1 [10g]	42.3 mM
CCc1ccc2oc(=O)cc(CN(C)c3ccc(Cl)cc3)c2c1 [11h]	73.4 mM and 70.81 mM

Same assay, conditions: L1 worms exposed 30 min, survival counted 24 hours after exposure; listed as LaSOM 231

Compound	LD50 (DL50) [mM]
CCc1ccc2oc(=O)cc(CN(C)c3ccccc3)c2c1 [11g]	61.55
